Assay results taken from US12533349B2, “Drug formulations for reservoir-based delivery” (Medtronic, Inc., priority 2020, dated 2026).

Legend:
Type in all cases: physicochemical
[1] = Hansen Solubility Parameters (HSP) determination; settings: Hansen Solubility Parameter
Source text: (§1) Without intending to be bound by theory, it is believed that HSP provides a thermodynamic indication of whether a compound will migrate into a component of the reservoir-based delivery device, such as a polymeric component of the reservoir-based delivery device. Greater differences between HSPs of the compound and the component tend to result in lower amounts of migration.
For purposes of the present disclosure, differential HSP values of less than 7 are considered to be of high risk, HSP values between 7 and 10 are considered to be of medium risk, and HSP values of greater than 10 are considered to be of low risk for the drug to migrate into the component of the reservoir-based delivery device. Differential HSP values may be determined as described in Kitak, et al. (2015), “Determination of Solubility Parameters of Ibuprofen and Ibuprofen Lysinate,” Molecules, 20:21549-21568. One useful measurement of differential HSP values is described in Equation (4) of Kitak, et al. on page 21550. Other useful measurements include Equations (5), (6), and (7) of Kitak, et al. on pages 21550-21551.
The HSP of bupivacaine and the drug contacting material (silicone) were determined.

[2] = Differential HSP between drug and drug-contacting material of SynchroMed II infusion device; settings: bupivacaine vs drug-contacting material (silicone); less than 7 is considered high risk of migration
Source text: as §1
For purposes of the present disclosure, differential HSP values of less than 7 are considered to be of high risk, HSP values between 7 and 10 are considered to be of medium risk, and HSP values of greater than 10 are considered to be of low risk for the drug to migrate into the component of the reservoir-based delivery device. Differential HSP values may be determined as described in Kitak, et al. (2015), “Determination of Solubility Parameters of Ibuprofen and Ibuprofen Lysinate,” Molecules, 20:21549-21568. […]
In the following, non-limiting example development of a bupivacaine formulation for use in a reservoir-based delivery device is shown. The drug delivery device for which compatibility was determined was Medtronic, Inc.'s SynchroMed® II implantable infusion device. […]
The differential HSP value was determined to be 4.2, which is considered to be high risk of the drug migrating into the drug-contacting material.

[3] = Potential for chemical reaction between functional groups of drug and drug-contacting material; settings: drug-contacting material silicone
Source text: The presence of certain functional groups on the drug or components of the formulation and certain functional groups on drug formulation contacting materials of the reservoir-based delivery devices may result in concern for chemical reaction between one or more ingredients of the formulation and the drug formulation contacting materials.
For example, silyl ether groups which may be present on silicone drug formulation contacting materials may react with amine groups, phosphate groups, or carboxylate groups of ingredients of the drug formulation.
In the following, non-limiting example development of a bupivacaine formulation for use in a reservoir-based delivery device is shown. The drug delivery device for which compatibility was determined was Medtronic, Inc.'s SynchroMed® II implantable infusion device. The material of the component of the SynchroMed® II for which compatibility was tested was silicone. Bupivacaine may migrate into silicone without consideration of formulation.
In addition, it was determined that bupivacaine has a high risk of potential for chemical reaction between functional groups in bupivacaine and the functional groups in the drug-contacting material.

CCCCN1CCCCC1C(=O)Nc1c(C)cccc1C (centres unmarked) [bupivacaine]
HSP δD ([1]; δD component): 18.1 | HSP δH ([1]; δH component): 6.03 | HSP δP ([1]; δP component): 6.46 | differential HSP value [2]: 4.2 | risk of potential for chemical reaction between functional groups in bupivacaine and in the drug-contacting material [3]: high risk
